Assay results published in ChEMBL document CHEMBL5532757, “Design, synthesis, and biological evaluation of 1,2,4-oxadiazole-based derivatives as multitarget anti-Alzheimer agents” (RSC Med Chem, 2024).
Counter-ions that a name gives are not always drawn. The source made the active and inactive calls. The calls are words filed in the database; no cut-off is given here.

Experiments:
[1] = target: T1, Acetylcholinesterase (Homo sapiens, UniProt P22303); assay: Potency index, ratio of donepezil IC50 to test compound IC50 for inhibition of AChE (unknown origin) using acetylthiocholine iodide as substrate incubated for 15 mins by DTNB reagent based ELISA
T1 sequence (P22303 whole entry): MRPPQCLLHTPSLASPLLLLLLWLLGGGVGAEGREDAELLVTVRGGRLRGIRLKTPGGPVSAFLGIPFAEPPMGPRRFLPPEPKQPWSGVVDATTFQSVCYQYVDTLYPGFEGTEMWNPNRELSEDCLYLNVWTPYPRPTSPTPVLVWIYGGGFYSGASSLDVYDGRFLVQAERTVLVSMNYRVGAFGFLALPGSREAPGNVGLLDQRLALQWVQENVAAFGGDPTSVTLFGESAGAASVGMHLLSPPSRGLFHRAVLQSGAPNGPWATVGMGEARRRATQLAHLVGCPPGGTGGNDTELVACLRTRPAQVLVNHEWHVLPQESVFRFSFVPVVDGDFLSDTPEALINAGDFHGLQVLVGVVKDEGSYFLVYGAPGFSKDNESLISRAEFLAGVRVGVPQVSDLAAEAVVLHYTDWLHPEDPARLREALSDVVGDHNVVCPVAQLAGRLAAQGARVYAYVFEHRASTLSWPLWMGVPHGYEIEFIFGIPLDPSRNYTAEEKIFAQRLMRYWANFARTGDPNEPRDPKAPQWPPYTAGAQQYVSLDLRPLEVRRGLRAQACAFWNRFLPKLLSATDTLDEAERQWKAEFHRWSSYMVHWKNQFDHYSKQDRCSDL

[2] = target: T2, Amine oxidase [flavin-containing] B (Homo sapiens, UniProt P27338); assay: Inhibition of human recombinant MAO-B expressed in baculovirus infected BTI insect cells measured after 30 to 90 sec by absorbance based assay; settings: for inhibition (INH): human, bti, time 30-90 sec
T2 sequence (P27338 whole entry): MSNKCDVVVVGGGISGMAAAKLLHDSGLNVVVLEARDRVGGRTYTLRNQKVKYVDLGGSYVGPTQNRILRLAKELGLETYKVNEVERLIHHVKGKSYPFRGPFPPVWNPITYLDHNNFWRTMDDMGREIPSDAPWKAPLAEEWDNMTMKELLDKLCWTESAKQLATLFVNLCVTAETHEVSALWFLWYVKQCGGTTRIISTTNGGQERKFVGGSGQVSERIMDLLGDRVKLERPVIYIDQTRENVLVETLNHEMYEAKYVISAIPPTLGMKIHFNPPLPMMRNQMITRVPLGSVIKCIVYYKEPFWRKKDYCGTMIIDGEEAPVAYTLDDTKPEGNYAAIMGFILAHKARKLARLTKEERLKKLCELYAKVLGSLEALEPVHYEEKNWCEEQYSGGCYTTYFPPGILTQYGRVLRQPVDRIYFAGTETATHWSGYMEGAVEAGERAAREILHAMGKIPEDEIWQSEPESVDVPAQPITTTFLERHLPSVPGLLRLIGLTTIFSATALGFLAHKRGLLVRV

[3] = Antioxidant activity assessed as DPPH radical scavenging activity measured after 30 mins by spectrophotometric analysis; format: functional
[4] = target: T1, Acetylcholinesterase; assay: Inhibition of AChE (unknown origin) using acetylthiocholine iodide as substrate incubated for 15 mins by DTNB reagent based ELISA
[5] = target: T3, Amine oxidase [flavin-containing] A (Homo sapiens, UniProt P21397); assay: Inhibition of MAO-A (unknown origin) measured after 30 to 90 sec by absorbance based assay; settings: for inhibition (INH): human, time 30-90 sec
T3 sequence (P21397 whole entry): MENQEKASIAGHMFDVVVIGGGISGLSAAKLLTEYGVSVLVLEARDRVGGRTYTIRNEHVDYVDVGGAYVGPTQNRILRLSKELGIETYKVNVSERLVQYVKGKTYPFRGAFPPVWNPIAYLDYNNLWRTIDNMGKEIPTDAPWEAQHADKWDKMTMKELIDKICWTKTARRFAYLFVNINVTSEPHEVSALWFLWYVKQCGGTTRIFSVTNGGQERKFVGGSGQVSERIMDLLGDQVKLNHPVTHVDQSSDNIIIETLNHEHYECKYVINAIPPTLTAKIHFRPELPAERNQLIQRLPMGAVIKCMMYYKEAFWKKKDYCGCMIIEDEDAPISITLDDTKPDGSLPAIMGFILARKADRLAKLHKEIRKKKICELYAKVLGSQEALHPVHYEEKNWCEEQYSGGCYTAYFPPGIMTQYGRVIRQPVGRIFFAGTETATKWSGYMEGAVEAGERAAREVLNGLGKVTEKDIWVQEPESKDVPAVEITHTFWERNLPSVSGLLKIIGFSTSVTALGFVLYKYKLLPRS

[6] = target: T4, Cholinesterase (Homo sapiens, UniProt P06276); assay: Inhibition of BChE (unknown origin) using butyrylthiocholine iodide as substrate incubated for 15 mins by DTNB reagent based ELISA
T4 sequence (P06276 whole entry): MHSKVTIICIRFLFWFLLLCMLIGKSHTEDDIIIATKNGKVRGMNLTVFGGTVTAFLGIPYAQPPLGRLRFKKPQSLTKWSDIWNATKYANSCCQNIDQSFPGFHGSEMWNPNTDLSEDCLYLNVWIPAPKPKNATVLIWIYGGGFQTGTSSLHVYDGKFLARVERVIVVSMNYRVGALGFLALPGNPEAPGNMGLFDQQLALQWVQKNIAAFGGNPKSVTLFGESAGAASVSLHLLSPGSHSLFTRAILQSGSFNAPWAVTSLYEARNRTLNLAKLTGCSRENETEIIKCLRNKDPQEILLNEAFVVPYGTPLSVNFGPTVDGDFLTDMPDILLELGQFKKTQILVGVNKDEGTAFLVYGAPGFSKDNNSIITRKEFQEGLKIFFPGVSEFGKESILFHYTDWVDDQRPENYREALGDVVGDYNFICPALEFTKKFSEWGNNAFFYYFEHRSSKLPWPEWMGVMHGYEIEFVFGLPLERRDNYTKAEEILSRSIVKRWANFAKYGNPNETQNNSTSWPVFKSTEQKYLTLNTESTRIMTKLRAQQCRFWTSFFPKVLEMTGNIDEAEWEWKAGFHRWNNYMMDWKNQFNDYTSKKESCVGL

[7] = Selectivity index, ratio of IC50 for inhibition of BChE (unknown origin) using butyrylthiocholine iodide as substrate to IC50 for inhibition of AChE (unknown origin) using acetylthiocholine iodide as substrate
[8] = target: T1, Acetylcholinesterase; assay: Inhibition of human recombinant AChE using acetylthiocholine iodide as substrate preincubated for 5 mins followed by substrate addition and measured after 2 mins by absorbance based microplate reader
[9] = target: T4, Cholinesterase; assay: Inhibition of human BChE using butyrylthiocholine iodide as substrate preincubated for 5 mins followed by substrate addition and measured after 2 mins by absorbance based microplate reader

Compound	Ratio IC50 [1]	inhibition (INH) [2]	Activity [3]	IC50 [4] [µM]	inhibition (INH) [5]	IC50 [6] [µM]	Ratio IC50 [7]	IC50 [3] [µM]	inhibition [4]	IC50 [5] [µM]	inhibition [6]	IC50 [2] [µM]	IC50 [8] [µM]	IC50 [9] [µM]
CCCCOc1cc(-c2nc(C)no2)ccc1N	1.01	Not Active	inactive	0.016	Not Active	47.6	3010	–	–	–	–	–	–	–
O=C1O[C@H]([C@@H](O)CO)C(O)=C1O [ASCORBIC ACID]	–	–	–	–	–	–	–	74.5	–	–	–	–	–	–
Cc1cc(NS(=O)(=O)c2ccc(-n3cc(COc4ccccc4-c4nc(-c5ccc(C(F)(F)F)cc5)no4)nn3)cc2)no1	–	Not Active	inactive	–	–	–	–	–	inactive	273	inactive	–	–	–
CCCNC(C)C(=O)Nc1c(C)csc1-c1nc(C)no1 (centres undefined)	–	Not Active	inactive	0.201	–	125	622	–	–	1260	–	–	–	–
CC(=NNC(=O)COc1ccccc1-c1nc(Cc2ccccc2)no1)c1nnn(-c2ccc(S(N)(=O)=O)cc2)c1C	–	Not Active	inactive	–	Not Active	–	–	–	inactive	–	inactive	–	–	–
Cc1noc(-c2ccc(N)cc2)n1	1.01	Not Active	–	0.104	Not Active	138	1320	105	–	–	–	–	–	–
CCCCOc1cc(-c2nc(-c3ccccc3)no2)ccc1N	–	Not Active	–	0.191	Not Active	11.5	60.3	59.2	–	–	–	–	–	–
CCCNC(C)C(=O)Nc1c(C)csc1-c1nc(Cc2ccccc2)no1 (centres undefined)	1.01	–	–	0.048	–	41.4	856	1350	–	197	–	74.7	–	–
CCCNC(C)C(=O)Nc1c(C)csc1-c1nc(-c2ccccc2)no1 (centres undefined)	1.01	–	–	0.102	–	33.2	325	1150	–	380	–	225	–	–
Cc1cc(NS(=O)(=O)c2ccc(-n3cc(COc4ccccc4-c4nc(Cc5ccccc5)no4)nn3)cc2)no1	1.01	Not Active	inactive	0.103	–	–	–	–	–	533	inactive	–	–	–
CCCNC(C)C(=O)Nc1c(C)csc1-c1nc(-c2ccccc2N)no1 (centres undefined)	1.01	–	–	0.121	–	54.5	449	959	–	248	–	289	–	–
Cc1cc(NS(=O)(=O)c2ccc(-n3cc(COc4ccccc4-c4nc(-c5ccccc5)no4)nn3)cc2)no1	1.01	Not Active	–	0.104	Not Active	26.1	250	56.7	–	–	–	–	–	–
CC(CCCCn1c(=O)c2c(ncn2C)n(C)c1=O)=NNC(=O)COc1ccccc1-c1nc(-c2ccccc2)no1	1.01	Not Active	inactive	0.094	Not Active	15	159	–	–	–	–	–	–	–
Cc1cc(NS(=O)(=O)c2ccc(NC(=O)COc3ccccc3-c3nc(-c4ccccc4)no3)cc2)no1	1.01	Not Active	inactive	0.094	Not Active	26.7	283	–	–	–	–	–	–	–
Cc1cc(=O)oc2cc(OCc3ccc(-c4noc([C@@H]5CCCN5)n4)cc3)ccc12	–	–	–	–	–	–	–	–	–	–	–	–	77.6	8.17
Nc1ccc(-c2nc(-c3ccccc3N)no2)cc1	–	Not Active	inactive	0.201	Not Active	85.6	427	–	–	–	–	–	–	–
CC(CCCCn1c(=O)c2c(ncn2C)n(C)c1=O)=NNC(=O)COc1ccccc1-c1nc(Cc2ccccc2)no1	–	Not Active	inactive	–	–	–	–	–	inactive	957	inactive	–	–	–
OC(CCN1CCCCC1)(c1ccccc1)C1CC2C=CC1C2 (centres undefined) [BIPERIDEN HYDROCHLORIDE]	–	–	–	–	–	–	–	–	–	–	–	266	–	–
